Source: patent publication US10961189B2, “Spiro-lactam NMDA receptor modulators and uses thereof” (Aptinyx Inc., priority 2016, dated 2021)
Like-named read-outs stand apart in the source and are kept apart here.

How the values were obtained:
Sprague Dawley rats = experiment: Bennett model of mechanical analgesia (sciatic nerve chronic constriction, paw withdrawal threshold); type: in vivo, rat;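 note: log paw withdrawal threshold scaled from vehicle group mean (0%) to naive 15 g value (100%)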
Procedure: The Bennett model of mechanical analgesia is used to assess the analgesic effects of compounds as measured by paw withdrawal threshold. Bennett GJ, Xie YK, “A peripheral mononeuropathy in rat that produces disorders of pain sensation like those seen in man,” Pain 33:87-107, 1988. […] Vehicle animals receive the surgery and then receive vehicle rather than test compound. Animals were tested 1 hr, 24 h and 1 wk post-test compound or vehicle administration.
Male 2-3 month old Sprague Dawley rats were used. Harlan was the supplier for all studies. Rats were housed in Lucite cages with aspen wood chip bedding, maintained on a 12:12 light:dark cycle (lights on at 5 AM), and given ad libitum access to Purina lab chow (USA) and tap water throughout the study.
Rats were anesthetized using inhaled isoflurane (2.5%). Sciatic nerve chronic constriction nerve injury surgery was performed as previously described (Bennett and Xie, 1988). An incision (˜1.5 cm in length) was made with a scalpel blade dorsally through skin on the right hind limb, parallel and posterior to femur. Using a small pointed hemostat, the biceps femoris and gluteus superficialis muscles were separated. Using curved blunt forceps, the common sciatic nerve was isolated and exposed. For the mechanical analgesia studies, the whole sciatic nerve was ligated. Using hemostats/forceps and chromic gut (5-0), the nerve was loosely ligated with a square knot; 3 ligatures, 1 mm apart were placed on the nerve. […] Testing occurred approximately 2 weeks post-surgery.
During testing, rats were acclimated to the surface of a suspended wire mesh grid (1 cm×1 cm, with the wire being 0.3 cm in diameter) for 15-20 min. Starting from the smallest, each Von Frey filament was pressed perpendicularly to the plantar surface of the affected (ipsilateral) hind paw until slightly bent and then held for 6 second. If an obvious hind paw withdrawal or a flinching behavior immediately after the withdrawal of the filament was not observed, the next larger filament was used in the same manner. In case of a response, a lower filament was used. This was repeated until six responses were collected.
For all studies, animals were baselined prior to study start to test for allodynia (defined as a paw withdrawal threshold under 5). A subset of animals was tested with gabapentin (150 mg/kg, PO) to ensure at least 50% analgesia. Once it was confirmed animals were ready for study initiation, animals were balanced across groups. All study investigators were blind to treatment conditions. Animals were dosed with 0.1, 1 or 10 mg/kg of test compound via oral gavage (PO), control sets of animals were dosed with gabapentin (150 mg/kg, PO) or vehicle (0.5% Na-CMC in 0.9% sterile saline, PO). Testing occurred 1 h post-dosing with animals retested 24 hrs and 1 week post-dosing. The percent analgesia calculations for each animal were made using the following equation: % analgesia=[(log(x)−y)/((log (z)−y)]*100, where x=the paw withdrawal threshold for the drug-treated animal in grams, y=the average of the log(x) values for the vehicle treated group, and z=the paw withdrawal threshold for naïve animals in grams (historical value of 15 used).
The results are shown in the table below where the percentage of analgesia is measured at 1 hour, 24 hours, and 1 week after compound administration. Since each study had its own gabapentin control group, an example gabapentin control value is shown.

[1] = oral pharmacokinetics (plasma, brain, CSF); type: in vivo, Sprague Dawley rats; conditions: rat, per os 10 mg/kg; for AUC(0-t) / bioavailability / Tmax / Cmax: Sprague-Dawley, plasma, po; for Tmax: normal saline (* in 5% NMP, 5% Solutol HS, 90% normal saline), read-out: Tmax; for Cmax: read-out: Cmax
Procedure: In another experiment, Sprague Dawley rats were dosed per os using a normal saline formulation containing 10 mg/kg of the compounds identified in the table below (except for the compounds marked with an asterisk (“*”) that were delivered in 5% NMP, 5% Solutol® HS and 90% normal saline formulation). Plasma, brain, and CSF samples were analyzed at various time points over a 24 hour period.

NMDAR2B = molecular target: T1, NMDAR2B (Homo sapiens, UniProt Q13224); experiment: [3H]MK-801 binding in NMDAR expressing HEK cell membranes (facilitation of NMDAR activation); type: biochemical; conditions: 50 μM glutamate; for EC50: read-out: B: log EC50 (converted); for Emax: 0.25 h, read-out: A: % maximal [3H]MK-801 binding relative to 1 mM glycine
T1 construct: expressed in transfected cells; host or cells: HEK cells (membrane extract)
How it was run: (§1)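 HEK membranes (300 μg) expressing the NMDAR subunit were preincubated 15 min at 25 °C with 50 μM glutamate and compound ([…]−1×10^−7M), then with 0.3 μCi [3H]MK-801 for 15 min under nonequilibrium conditions and filtered. Baseline-subtracted DPM was expressed as % of 1 mM glycine, and EC50 and % maximal binding came from three-parameter curve fits.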

NMDAR2A = molecular target: T2, NMDAR2A (Homo sapiens, UniProt Q12879); experiment: as above; type: biochemical; conditions: 50 μM glutamate; for Emax: 0.25 h, read-out: A: % maximal [3H]MK-801 binding relative to 1 mM glycine; for EC50: read-out: B: log EC50 (converted)
T2 construct: expressed in transfected cells; host or cells: HEK cells (membrane extract)
How it was run: as §1

T2 sequence (Q12879 23-1464, species assumed, other chains not shown): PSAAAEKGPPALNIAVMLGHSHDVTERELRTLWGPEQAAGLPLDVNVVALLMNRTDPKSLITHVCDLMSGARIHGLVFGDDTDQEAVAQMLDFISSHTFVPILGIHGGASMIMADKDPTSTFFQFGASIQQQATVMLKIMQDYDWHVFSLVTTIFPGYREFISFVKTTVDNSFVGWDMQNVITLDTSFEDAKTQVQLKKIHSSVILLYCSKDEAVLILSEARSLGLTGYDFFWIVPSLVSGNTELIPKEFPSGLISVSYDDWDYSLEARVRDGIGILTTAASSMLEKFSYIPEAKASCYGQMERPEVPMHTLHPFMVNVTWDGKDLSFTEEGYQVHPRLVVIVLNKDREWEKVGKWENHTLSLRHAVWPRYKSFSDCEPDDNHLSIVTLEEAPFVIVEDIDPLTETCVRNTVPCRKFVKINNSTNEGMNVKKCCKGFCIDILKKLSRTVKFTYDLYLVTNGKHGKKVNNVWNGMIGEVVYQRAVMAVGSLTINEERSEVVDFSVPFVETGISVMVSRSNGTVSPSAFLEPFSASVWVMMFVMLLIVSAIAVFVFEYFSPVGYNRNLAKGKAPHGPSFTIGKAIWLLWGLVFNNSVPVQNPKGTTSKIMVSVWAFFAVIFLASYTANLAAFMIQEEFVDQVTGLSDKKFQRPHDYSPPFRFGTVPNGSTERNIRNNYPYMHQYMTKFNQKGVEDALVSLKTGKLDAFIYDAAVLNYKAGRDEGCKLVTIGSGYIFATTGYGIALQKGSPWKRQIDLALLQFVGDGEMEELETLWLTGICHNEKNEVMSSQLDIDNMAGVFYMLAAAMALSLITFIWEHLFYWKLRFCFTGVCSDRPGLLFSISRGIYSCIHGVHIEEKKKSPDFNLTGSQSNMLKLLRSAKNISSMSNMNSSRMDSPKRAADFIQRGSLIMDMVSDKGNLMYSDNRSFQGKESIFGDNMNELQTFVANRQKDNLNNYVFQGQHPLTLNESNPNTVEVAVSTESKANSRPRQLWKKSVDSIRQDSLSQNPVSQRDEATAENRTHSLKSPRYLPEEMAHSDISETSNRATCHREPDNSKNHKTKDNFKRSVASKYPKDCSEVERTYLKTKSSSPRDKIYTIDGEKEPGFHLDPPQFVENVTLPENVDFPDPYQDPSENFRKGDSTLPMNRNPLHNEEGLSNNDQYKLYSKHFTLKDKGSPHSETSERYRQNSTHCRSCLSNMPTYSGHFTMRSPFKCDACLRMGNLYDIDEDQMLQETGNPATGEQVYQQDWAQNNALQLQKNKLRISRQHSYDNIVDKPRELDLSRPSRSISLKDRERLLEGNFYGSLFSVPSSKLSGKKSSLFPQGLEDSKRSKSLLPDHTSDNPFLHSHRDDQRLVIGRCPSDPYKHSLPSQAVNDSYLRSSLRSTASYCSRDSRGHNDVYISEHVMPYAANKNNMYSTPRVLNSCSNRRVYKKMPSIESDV
T1 sequence (Q13224 27-1484, species assumed, other chains not shown): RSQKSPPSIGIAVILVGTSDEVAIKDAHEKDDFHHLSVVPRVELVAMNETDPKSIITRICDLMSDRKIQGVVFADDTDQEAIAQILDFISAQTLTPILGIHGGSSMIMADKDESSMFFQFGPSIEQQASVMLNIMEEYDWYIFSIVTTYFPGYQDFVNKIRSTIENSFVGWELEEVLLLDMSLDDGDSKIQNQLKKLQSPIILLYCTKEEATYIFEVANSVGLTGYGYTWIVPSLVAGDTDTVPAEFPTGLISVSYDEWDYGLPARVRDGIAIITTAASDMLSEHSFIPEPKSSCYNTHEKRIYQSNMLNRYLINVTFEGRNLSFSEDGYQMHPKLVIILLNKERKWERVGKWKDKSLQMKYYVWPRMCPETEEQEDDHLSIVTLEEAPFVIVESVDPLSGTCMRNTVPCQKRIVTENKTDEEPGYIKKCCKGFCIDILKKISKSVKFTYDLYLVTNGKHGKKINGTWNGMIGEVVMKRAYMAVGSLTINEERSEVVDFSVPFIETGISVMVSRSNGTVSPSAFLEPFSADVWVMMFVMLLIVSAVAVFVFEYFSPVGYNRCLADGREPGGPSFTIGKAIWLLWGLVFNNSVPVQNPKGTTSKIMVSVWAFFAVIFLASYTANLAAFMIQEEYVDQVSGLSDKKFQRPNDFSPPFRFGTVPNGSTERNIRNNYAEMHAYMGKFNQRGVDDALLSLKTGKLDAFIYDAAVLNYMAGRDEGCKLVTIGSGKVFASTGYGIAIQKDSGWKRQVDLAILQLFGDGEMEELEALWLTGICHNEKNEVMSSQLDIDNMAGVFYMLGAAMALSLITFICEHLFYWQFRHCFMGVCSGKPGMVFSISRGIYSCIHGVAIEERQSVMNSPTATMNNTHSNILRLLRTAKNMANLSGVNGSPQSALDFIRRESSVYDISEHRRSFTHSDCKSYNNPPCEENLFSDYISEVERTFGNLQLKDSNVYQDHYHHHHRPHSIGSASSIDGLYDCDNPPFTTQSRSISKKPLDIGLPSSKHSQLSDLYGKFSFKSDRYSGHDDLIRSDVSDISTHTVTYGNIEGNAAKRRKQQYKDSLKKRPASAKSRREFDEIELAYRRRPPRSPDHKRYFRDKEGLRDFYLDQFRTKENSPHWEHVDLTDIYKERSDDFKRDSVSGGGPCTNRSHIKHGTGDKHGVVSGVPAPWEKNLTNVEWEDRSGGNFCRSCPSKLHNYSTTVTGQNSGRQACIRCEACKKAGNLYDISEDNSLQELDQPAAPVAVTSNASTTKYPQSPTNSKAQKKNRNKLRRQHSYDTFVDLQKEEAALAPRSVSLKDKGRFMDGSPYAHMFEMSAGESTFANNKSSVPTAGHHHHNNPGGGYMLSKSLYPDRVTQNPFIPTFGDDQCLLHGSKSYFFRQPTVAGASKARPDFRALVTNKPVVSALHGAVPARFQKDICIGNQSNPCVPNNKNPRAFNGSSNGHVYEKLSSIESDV

Structure (SMILES) | % analgesia (Sprague Dawley rats; 0.1 mg/kg PO, 1 wk) | % analgesia (Sprague Dawley rats; 0.1 mg/kg PO, 1 h) | % analgesia (Sprague Dawley rats; 0.1 mg/kg PO, 24 h) | % analgesia (Sprague Dawley rats; 1 mg/kg PO, 1 wk) | % analgesia (Sprague Dawley rats; 1 mg/kg PO, 1 h) | % analgesia (Sprague Dawley rats; 1 mg/kg PO, 24 h) | % analgesia (Sprague Dawley rats; 10 mg/kg PO, 1 wk) | % analgesia (Sprague Dawley rats; 10 mg/kg PO, 1 h) | % analgesia (Sprague Dawley rats; 10 mg/kg PO, 24 h) | AUC(0-t) ([1]; 10 mg/kg) | bioavailability ([1]; 10 mg/kg) | Tmax ([1]; 10 mg/kg) | Cmax ([1]; 10 mg/kg) | CSF Cmax [1] | Brain Cmax [1] | EC50 (NMDAR2B) | Emax (NMDAR2B) | Emax (NMDAR2A) | EC50 (NMDAR2A) | other results
CC1CCC2(CC1)CNC2=O (racemic) [Compound AD, 7-methyl-2-azaspiro[3.5]nonan-1-one] | 0% | 18.4% | 4.7% | 17.9% | 15.4% | 13.8% | 15.5% | 15.3% | 7.6% | 4580 ng·h/mL | 67% | 25.2 min | 2030 ng/mL | 1009.2 ng/mL | 1832.2 ng/mL | ≥ 1 nM | < 100% | 0% | – | –
O=C1NCC12CCC(OCc1ccccc1)CC2 (single isomer, unassigned) [AI, 7-(benzyloxy)-2-azaspiro[3.5]nonan-1-one] | 7.7% | 5.3% | 7.7% | 10.2% | 40.4% | 23.4% | 22.0% | 50.0% | 33.2% | 5900 ng·h/mL | 94% | 30 min | 3970 ng/mL | 269.17 ng/mL | 1087.9 ng/mL | < 1 nM | < 100% | < 100% | < 1 nM | –
C[C@@H](O)[C@H](NC1CCC2(CC1)CNC2=O)C(N)=O (single isomer, unassigned) [AP] | – | – | – | – | – | – | 0% | 28.0% | 0% | 2050 ng·h/mL | 15% | 120 min | 625 ng/mL | 80.46 ng/mL | 0 ng/mL | < 1 nM | < 100% | < 100% | < 1 nM | –
COc1ccc(CN2CC3(CCC(O)CC3)C2=O)cc1 (stereo not drawn) [AG] | 1.7% | 26.7% | 14.8% | 0% | 41.5% | 23.7% | 0% | 56.9% | 26.7% | – | – | – | – | 217.3 ng/mL | 307.49 ng/mL | < 1 nM | < 100% | < 100% | ≥ 1 nM | bioavailability [1]: 41%; Tmax [1]: 15 min; AUC(0-t) [1]: 1330 ng·h/mL; Cmax [1]: 1930 ng/mL
O=C1NCC12CCC(O)CC2 (stereo not drawn) [AL, 7-hydroxy-2-azaspiro[3.5]nonan-1-one] | 3.1% | 20.9% | 10.8% | 6.6% | 52.7% | 14.4% | 1.1% | 61.9% | 13.8% | 19300 ng·h/mL | 97% | 60 min | 9480 ng/mL | 7532 ng/mL | 3672 ng/mL | < 1 nM | – | – | – | A: % maximal [3H]MK-801 binding relative to 1 mM glycine (NMDAR2B): + (<100%=+); A: % maximal [3H]MK-801 binding relative to 1 mM glycine (NMDAR2A): − (−=0)
